Results as given in paper doi:10.1101/2022.12.02.518844v2 (bioRxiv, 2022).

Tested on: 1057 cells (GRPR^pos)
Assay: Cell growth of GRPR^pos mouse melanoma cells
Assay type: cell-based
Details: 1 µM GRPR inhibitor + 10 nM GRP, low-serum medium, 48 h

COc1ccc(C2(CNC(=O)[C@](C)(Cc3c[nH]c4ccccc34)NC(=O)Nc3ccc([N+](=O)[O-])cc3)CCCCC2)nc1 [PD-176252]
GRP-induced growth assessed by MTT: same blocking effect
